Test results from patent US12357619B2, “Noradrenergic and specific serotonergic anxiolytic and antidepressant, method for the production and use thereof” (ALLA CHEM, LLC, priority 2020, dated 2025).
Like-named read-outs stand apart in the source and are kept apart here.

Tests used:
[1] = system: healthy volunteers; experiment: Safety, single oral administration of capsules in healthy volunteers (Example 10); assay type: in vivo, human
Protocol: Example 10. Clinical study of the safety of the oral drug of this invention. An open-label clinical trial of the pharmacokinetics of the antipsychotic drug made as a pharmaceutical composition of this invention in capsules, was conducted with a single oral administration in 32 healthy volunteers at doses of 2 mg/day (cohort 1, 8 volunteers), 4 mg/day (cohort 1, 8 volunteers), 10 mg/day (cohort 1, 8 volunteers), and 20 mg/day (cohort 1, 8 volunteers), expressed as base A, in accordance with the recommendations of “Good clinical practice (GCP)” on physically and mentally healthy men aged 20-50 years with a body mass index of […].

[2] = system: people with generalized anxiety disorder (GAD); experiment: Randomized double-blind placebo-controlled GAD study, Hamilton depression scale (HAMD); assay type: in vivo, human; conditions: after 8 weeks
Protocol: Example 12. Efficacy and safety study of the oral drug of this invention made as a pharmaceutical composition of this invention in capsules. […] During the study, 3 scheduled visits were conducted in Week 2, Week 4, and Week 8 to assess the effectiveness and safety of the therapy as well as drug inventory and administration. During all of those visits, the patient's diary was checked, a drug inventory was made and the patients' compliance was assessed. In addition, adverse events, concomitant therapy, and vital signs were evaluated, urine drug screen was performed, and assessments using Hamilton Anxiety Rating Scale (HARS), Hamilton Depression Scale (HAMD), Clinical Global Impression-Severity (CGI-S), Clinical Global Impression-Improvement (CGI-I), and Visual Analog Scale (VAS) were made; women of child-bearing potential will take a urine pregnancy test. Also, during visits at Week 4 and Week 8 a physical examination was performed, body weight was measured, an ECG was performed in 12 leads and blood and urine samples were obtained for laboratory tests, namely: urinalysis and biochemical blood analysis, PK analysis before and 1 hour after taking the study drug (SD), and urinalysis. At Week 4, a blood sample was also obtained for genotyping by CYP2D6. […] During this time, a possible development of SD withdrawal syndrome against the background of placebo was evaluated. […]

[3] = Pharmacokinetics, single oral administration of capsules in healthy volunteers (Example 10); assay type: in vivo, human; conditions: for AUC(0-inf) / Tmax / Cmax: capsules; for AUC(0-inf) / Tmax: 8 volunteers; for Cmax: average of 8 volunteers
Source text: Clinical study of the safety of the oral drug of this invention.

[4] = biological target: T1, Adrenergic α1A (Homo sapiens, UniProt P35348); experiment: Receptor activities, Ki (Table 1); assay type: binding
T1 sequence (P35348 1-466): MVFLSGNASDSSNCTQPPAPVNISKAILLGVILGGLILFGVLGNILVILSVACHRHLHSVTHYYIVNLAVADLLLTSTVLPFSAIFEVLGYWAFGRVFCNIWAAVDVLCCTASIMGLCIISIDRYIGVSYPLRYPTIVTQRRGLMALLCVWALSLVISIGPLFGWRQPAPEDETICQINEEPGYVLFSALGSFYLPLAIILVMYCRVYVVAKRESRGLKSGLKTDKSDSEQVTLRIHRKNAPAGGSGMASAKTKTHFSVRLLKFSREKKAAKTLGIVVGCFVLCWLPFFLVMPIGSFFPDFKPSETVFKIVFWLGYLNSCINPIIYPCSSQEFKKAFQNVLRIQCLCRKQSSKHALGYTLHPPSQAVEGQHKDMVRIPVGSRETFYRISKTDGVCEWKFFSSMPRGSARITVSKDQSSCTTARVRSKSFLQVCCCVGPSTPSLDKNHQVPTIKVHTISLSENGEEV

[5] = biological target: T2, Adrenergic α2C (Homo sapiens, UniProt P18825); experiment: Receptor activities, Ki (Table 1); assay type: binding
T2 sequence (P18825 1-462): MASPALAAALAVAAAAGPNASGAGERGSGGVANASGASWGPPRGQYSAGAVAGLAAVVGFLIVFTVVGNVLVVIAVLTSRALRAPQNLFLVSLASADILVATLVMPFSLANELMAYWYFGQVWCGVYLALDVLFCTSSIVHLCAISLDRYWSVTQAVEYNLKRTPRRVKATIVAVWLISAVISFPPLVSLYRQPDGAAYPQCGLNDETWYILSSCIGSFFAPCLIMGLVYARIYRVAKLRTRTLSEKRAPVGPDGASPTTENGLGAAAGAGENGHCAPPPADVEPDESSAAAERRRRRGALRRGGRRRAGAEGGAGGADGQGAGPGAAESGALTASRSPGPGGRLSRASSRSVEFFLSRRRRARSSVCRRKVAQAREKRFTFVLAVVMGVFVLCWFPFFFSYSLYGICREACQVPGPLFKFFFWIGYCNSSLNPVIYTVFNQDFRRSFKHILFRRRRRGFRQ

[6] = system: people with generalized anxiety disorder (GAD); experiment: Randomized double-blind placebo-controlled GAD study, Hamilton anxiety scale (HARS); assay type: in vivo, human; conditions: for HARS average change (standard error): after 8 weeks; for Patients who attained a 50% HARS total score reduction at Week 8, percentage / Patients who attained a 50% HARS total score reduction at Week 8, X (number): MITT population
Protocol: Example 12. Efficacy and safety study of the oral drug of this invention made as a pharmaceutical composition of this invention in capsules. […] During the study, 3 scheduled visits were conducted in Week 2, Week 4, and Week 8 to assess the effectiveness and safety of the therapy as well as drug inventory and administration. During all of those visits, the patient's diary was checked, a drug inventory was made and the patients' compliance was assessed. In addition, adverse events, concomitant therapy, and vital signs were evaluated, urine drug screen was performed, and assessments using Hamilton Anxiety Rating Scale (HARS), Hamilton Depression Scale (HAMD), Clinical Global Impression-Severity (CGI-S), Clinical Global Impression-Improvement (CGI-I), and Visual Analog Scale (VAS) were made; women of child-bearing potential will take a urine pregnancy test. Also, during visits at Week 4 and Week 8 a physical examination was performed, body weight was measured, an ECG was performed in 12 leads and blood and urine samples were obtained for laboratory tests, namely: urinalysis and biochemical blood analysis, PK analysis before and 1 hour after taking the study drug (SD), and urinalysis. At Week 4, a blood sample was also obtained for genotyping by CYP2D6. At Week 8, treatment in the groups was completed, and all patients were prescribed a placebo to be taken during the follow-up period, which lasted 1 week. During this time, a possible development of SD withdrawal syndrome against the background of placebo was evaluated. During the visit at Week 9, the patient's diary was checked, a drug inventory was made and the patients' compliance was assessed. In addition, adverse events, concomitant therapy, and vital signs were evaluated, urine drug screen was performed, and assessments using the Hamilton Anxiety Rating Scale (HARS), Hamilton Depression Scale (HAMD), Clinical Global Impression-Severity (CGI-S), Clinical Global Impression-Improvement (CGI-I), and Visual Analog Scale (VAS) were made; women of child-bearing age will take a urine pregnancy test. At this point, the patients' participation in the study was completed, and they received recommendations for further treatment as part of standard GAD therapy.

[7] = single doses of 2, 4, 10, and 20 mg, healthy volunteers
[8] = male, human, blood, single oral dose 2 mg
[9] = male, human, blood, single oral dose 4 mg
[10] = male, human, blood, single oral dose 10 mg
[11] = male, human, blood, single oral dose 20 mg

In the case of `Cc1ccc2c(c1)c1c(n2CCc2ccccc2)CCN(C)C1.Cl` [A•HCl, 2,8-dimethyl-5-(2-phenylethyl)-2,3,4,5-tetrahydro-1H-pyrido[4,3-b]indole hydrochloride], the Side effects observed ([1]; 20-mg cohort, single dose) is reported as “drowsiness, agitation and paresthesia”, the “Effect on the parameters of plasma and urine” value [1, 7] is reported as “neither significantly affect the parameters of plasma and urine” and the Tolerability [1, 7] is reported as “well tolerated”. The “HAMD average change (standard error)” value ([2]; 40 mg, N = 42, average at Week 0 10.9) was −5.2 (0.57), the “HAMD average change (standard error)” value ([2]; 60 mg, N = 44, average at Week 0 10.9) was −4.4 (0.56) and the “Dose dependence of Cmax and AUC” value ([3]; dose range from 2 to 20 mg) was “linear increase in Cmax and AUC”. The AUC(0-inf) [3, 8] was 0.0946 ng·h/mL, the Tmax [3, 8] was 1 h and the Cmax ([3]; male, human, blood, single oral dose 2 mg, read-out: Cmax) was 0.0021 ng/mL. The AUC(0-inf) [3, 9] was 0.211 ng·h/mL, the Tmax [3, 9] was 1 h and the AUC(0-inf) [3, 10] was 0.462 ng·h/mL. The Tmax [3, 10] was 0.625 h, the AUC(0-inf) [3, 11] was 0.834 ng·h/mL and the Tmax [3, 11] was 1 h. It also gave a half-life ([3]; male, human, blood, single oral doses 2 to 20 mg, read-out: Harmonic mean half-life) of at most 14 h, a Cmax ([3]; single oral dose 4 mg) of 0.0229 ng/mL and a Cmax ([3]; single oral dose 10 mg) of 0.0537 ng/mL. For the same molecule, the Cmax ([3]; single oral dose 20 mg) was 0.0841 ng/mL, the “Time at which the maximum concentration in the blood of the base (A) is reached” value ([3]; single oral doses 2 to 20 mg) was “about an hour” and the Ki [4] was 30.2 nM. The Ki [5] was 3.55 nM, the “HARS average change (standard error)” value ([6]; 40 mg, N = 42, average at Week 0 26.9) was −13.4 (1.37) and the “HARS average change (standard error)” value ([6]; 60 mg, N = 44, average at Week 0 26.5) was −12.9 (1.37). The “Patients who attained a 50% HARS total score reduction at Week 8, percentage” value ([6]; Dose 60 mg, N = 40) was “(55.0%)”, the “Patients who attained a 50% HARS total score reduction at Week 8, X (number)” value ([6]; Dose 60 mg, N = 40, of Y = 40 patients) was 22 and the “Patients who attained a 50% HARS total score reduction at Week 8, percentage” value ([6]; printed Dose 60 mg, N = 42) was “(47.6%)”. For the same molecule, the “Patients who attained a 50% HARS total score reduction at Week 8, X (number)” value ([6]; printed Dose 60 mg, N = 42, of Y = 42 patients) was 20.
